Experimental data reported in US9315451B2, “Tetracycline compounds” (priority 2009, dated 2016).
Where two headings read alike, the source gives them in different places.

What was measured:
Assay type in all cases: in vivo
[1] = Pharmacokinetic studies in rats; conditions: male Sprague Dawley rats; for clearance / bioavailability / AUC / Cmax: rat, plasma, fasted; for clearance: read-out: Cl, IV Rat PK; for bioavailability: oral 10 mg/kg vs IV 1 mg/kg, read-out: % F (oral bioavailability), Oral Rat PK; for Cmax: read-out: Cmax, IV Rat PK
Protocol: Pharmacokinetic Studies in Rats Test compounds were evaluated in fasted (no food for 18 hours prior to dosing) male Sprague Dawley rats (3 animals per group) by administration of 1 mg/kg intravenously into the jugular vein and […] by oral gavage. Ten plasma samples were drawn for each dosing route up to 24 hours into heparin-coated vacutainer tubes. The plasma concentrations of the test compounds were quantified by LC/MS/MS using an internal standards. WinNONLIN was used to determine PK parameters ±standard deviation (AUC, Cmax, CL, Vss and % oral bioavailabilty (% F) and are set forth in Table F.

[2] = system: S. aureus Smith (ATCC 13709); test: Mouse systemic infection (septicemia) model, S. aureus Smith; conditions: Staphylococcus aureus, CD-1 female mice; for responders at 3 mg/kg: ATCC13709, iv, IV 3 mg/kg one hour post infection, read-out: SA Smith septicemia survival IV (3 mg/kg); for responders at 3 mg/kg / responders at 30 mg/kg: 48 h, survival at 48 hours; for responders at 30 mg/kg: ATCC13709, po, PO 30 mg/kg one hour post infection, read-out: SA Smith septicemia survival PO (30 mg/kg); for ED50: ATCC13709, dose that prevents 50% of the mice from death, 48 hours
Summary of the method: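 Female CD-1 mice (18-22 g) infected IP with an inoculum lethal to all within 24–48 h. Compound given 1 h post-infection IV ([…]) or PO ([…]), typically six mice per dose group; survival followed for 48 h and PD50 (mg/kg) derived from 48 h survival.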

[3] = system: S. aureus ATCC 13709; test: Neutropenic thigh model; conditions: neutropenic female CD-1 mice, IV, doses ranging 0.3 to 30 or 0.3 to 20 mg/kg, 24 hours post treatment
Protocol: Neutropenic Thigh Model Female CD-1 mice were pre-treated with cyclophosphamide to render the mice neutropenic. Mice were infected with S. aureus ATCC 13709 via injection of 0.1 ml into the right thigh muscle of each mouse. One and a half hours post infection mice were treated IV with test compounds in doses ranging from 0.3 to 30 mg/kg or 0.3 to 20 mg/kg. Four mice were treated with each drug concentration. Twenty-four hours post treatment, mice were euthanized by CO2 inhalation. The right thighs of the mice were aseptically removed, weighed, homogenized, serially diluted, and plated on TSA medium. The plates were incubated overnight at 37° C. in 5% CO2. Colony forming units per gram of thigh was calculated by enumerating the plated colonies then adjusting for serial dilutions and the weight of the thigh.

[4] = system: Uropathogenic E. coli EC200; test: Murine kidney infection model, uropathogenic E. coli EC200; conditions: Escherichia coli, po, 36 h, BALB/c mice, read-out: EC200 UTI PO, log10 reduction in CFUs in the kidney versus untreated controls
Protocol: Kidney Infection Models for Uropathogenic E. coli EC200 and K. pneumoniae ESBL Isolate KP453
Compounds were tested in a BALB/c murine kidney infection model challenged with tetracycline-resistant E. coli strain uropathogenic […] via intravenous injection. […] For IV administration test compound was dosed at 3 mg/kg. Thirty-six hours following initiation of treatment, mice were euthanized and bacterial reduction in the kidney was quantified by plating kidney homogenates. Results are reported in Table D as log10 reduction in colony forming units (CFUs) in the kidney versus untreated controls (receiving no test compound).

[5] = IV 1 mg/kg, read-out: AUC, IV Rat PK
[6] = oral gavage 10 mg/kg, read-out: AUC, Oral Rat PK
[7] = IV, read-out: SA Smith septicemia PD50 IV
[8] = PO, read-out: SA Smith septicemia PD50 PO

Row | Compound | clearance ([1]; IV 1 mg/kg) [mL/min/kg] | bioavailability [1] [%] | AUC [1, 5] [ng·h/mL] | Cmax ([1]; IV 1 mg/kg) [ng/mL] | AUC [1, 6] [ng·h/mL] | responders at 3 mg/kg [2] [%] | responders at 30 mg/kg [2] [%] | ED50 [2, 7] [mg/kg] | ED50 [2, 8] [mg/kg] | log10 REDUCTION in colony forming units versus untreated control group (thigh) [3] [log10] | 12 h urine, IV Rat PK ([1]; IV 1 mg/kg, urine, 12 h) [h urine 11 ug/mL] | log reduction at 2 mg/kg ([4]; PO 2 mg/kg at 12 and 24 hours post infection) | log reduction at 3 mg/kg ([4]; PO @ 3 mpk)
1 | CC(C)CNCc1cc(O)c2c(c1F)C[C@H]1C[C@H]3[C@H](N(C)C)C(O)=C(C(N)=O)C(=O)[C@@]3(O)C(O)=C1C2=O [Compound S2-4-14] | 3.88 | 13.7 | 4430 | 667 | 6160 | 100 | 100 | 0.84 | 12.2 | 3.68 | – | – | –
2 | CN(C)[C@@H]1C(O)=C(C(N)=O)C(=O)[C@@]2(O)C(O)=C3C(=O)c4c(O)cc(CN(C)C(C)(C)C)c(F)c4C[C@H]3C[C@@H]12 [Compound S2-4-25] | 19.4 | 9.1 | 838 | 214 | 826 | 100 | 100 | 0.35 | 1.4 | 4.1 | 12 | 2.78 | 3.63
